Data published in ChEMBL document CHEMBL1137621, “3-Nitro-4-amino benzoic acids and 6-amino nicotinic acids are highly selective agonists of GPR109b” (Bioorg Med Chem Lett, 2007).
Activity calls are given as the source filed them. The rule behind the calls is not given here.

Columns and labels:
[1] = molecular target: Hydroxycarboxylic acid receptor 3 (Homo sapiens, UniProt P49019); test: Agonist activity at human GPR109b receptor transfected in CHOK1 cells assessed as reversal of forskolin-induced cAMP elevating effect by whole cell assay; format: functional, cell-based, CHO-K1
[2] = molecular target: T1, Hydroxycarboxylic acid receptor 2 (Homo sapiens, UniProt Q8TDS4); test: Agonist activity at human GPR109a receptor transfected in CHOK1 cells at 30 uM assessed as reversal of forskolin induced cAMP elevating effect by whole cell assay; format: functional, cell-based; conditions: CHO-K1
[3] = molecular target: T1, Hydroxycarboxylic acid receptor 2; test: Agonist activity at human GPR109a receptor transfected in CHOK1 cells assessed as reversal of forskolin induced cAMP elevating effect by whole cell assay; format: functional, cell-based, CHO-K1

T1 sequence (Q8TDS4 whole entry): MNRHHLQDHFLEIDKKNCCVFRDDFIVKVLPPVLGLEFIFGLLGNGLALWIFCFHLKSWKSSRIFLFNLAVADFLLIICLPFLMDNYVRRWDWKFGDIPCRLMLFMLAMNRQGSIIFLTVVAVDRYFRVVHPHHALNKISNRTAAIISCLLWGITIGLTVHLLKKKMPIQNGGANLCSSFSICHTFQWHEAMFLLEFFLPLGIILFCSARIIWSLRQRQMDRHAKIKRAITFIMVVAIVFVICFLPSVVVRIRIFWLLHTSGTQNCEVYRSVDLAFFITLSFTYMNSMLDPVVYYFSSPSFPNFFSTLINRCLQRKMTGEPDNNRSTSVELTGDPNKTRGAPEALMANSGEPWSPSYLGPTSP
Hydroxycarboxylic acid receptor 3, sequence (P49019 whole entry): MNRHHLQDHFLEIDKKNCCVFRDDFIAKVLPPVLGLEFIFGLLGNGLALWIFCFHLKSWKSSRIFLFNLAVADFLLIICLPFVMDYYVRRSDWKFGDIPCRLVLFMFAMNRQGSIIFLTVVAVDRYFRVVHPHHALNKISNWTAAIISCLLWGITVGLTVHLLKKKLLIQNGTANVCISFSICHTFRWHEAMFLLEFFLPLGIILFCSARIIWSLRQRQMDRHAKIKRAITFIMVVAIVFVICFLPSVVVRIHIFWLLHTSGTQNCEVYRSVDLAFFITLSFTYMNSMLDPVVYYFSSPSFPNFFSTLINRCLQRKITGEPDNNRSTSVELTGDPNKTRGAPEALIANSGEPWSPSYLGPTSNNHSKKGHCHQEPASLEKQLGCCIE

| SMILES | EC50 [1] | Activity [2] | EC50 [3] | Activity ([1]; CHO-K1) |
| --- | --- | --- | --- | --- |
| CNc1ccc(C(=O)O)cn1 | 7410 nM | inactive |  |  |
| O=C(O)c1ccc(N2CCCC2)c([N+](=O)[O-])c1 | > 10000 nM | inactive |  |  |
| O=C(O)c1ccc(NCC2CCCO2)c([N+](=O)[O-])c1 (centres undefined) | 309 nM | inactive |  |  |
| O=C(O)c1ccc(NCC2CCCO2)nc1 (centres undefined) | 603 nM | inactive |  |  |
| CCCN(C)c1ccc(C(=O)O)cc1[N+](=O)[O-] | 52.5 nM | inactive |  |  |
| CC(C)CNc1ccc(C(=O)O)cn1 | 1070 nM |  | 35000 nM |  |
| CN(C)c1ccc(C(=O)O)cc1[N+](=O)[O-] | 2040 nM | inactive |  |  |
| CCCCCNc1ccc(C(=O)O)cn1 | 151 nM | inactive |  |  |
| CCCCNc1ccc(C(=O)O)cc1[N+](=O)[O-] | 158 nM | inactive |  |  |
| COCCNc1ccc(C(=O)O)cc1[N+](=O)[O-] | 589 nM | inactive |  |  |
| O=C(O)c1ccc(Nc2ccccc2)c([N+](=O)[O-])c1 | 2450 nM | inactive |  |  |
| CNc1ccc(C(=O)O)cc1[N+](=O)[O-] | 1910 nM | inactive |  |  |
| CCCCCNc1ccc(C(=O)O)cc1[N+](=O)[O-] | 282 nM | inactive |  |  |
| COCC(C)Nc1ccc(C(=O)O)cc1[N+](=O)[O-] (centres undefined) | 1410 nM | inactive |  |  |
| CCCCNc1ccc(C(=O)O)cn1 | 100 nM | inactive |  |  |
| O=C(O)c1ccc(NC2CCC2)c([N+](=O)[O-])c1 | 200 nM | inactive |  |  |
| O=C(O)c1ccc(N2CCCC2)nc1 |  | inactive |  | inactive |
| O=C(O)c1ccc(NC2CC2)c([N+](=O)[O-])c1 | 309 nM | inactive |  |  |
| CCC(C)Nc1ccc(C(=O)O)cn1 (centres undefined) | 380 nM | inactive |  |  |
| CCCN(C)c1ccc(C(=O)O)cn1 | 1620 nM | inactive |  |  |
| O=C(O)c1ccc(NC(=O)c2ccccc2)c([N+](=O)[O-])c1 | 3090 nM | inactive |  |  |
| CCCN(CCC)c1ccc(C(=O)O)cn1 | 6310 nM | inactive |  |  |
| CCCNc1ccc(C(=O)O)cn1 | 51.3 nM | inactive |  |  |
| CCCNc1ccc(C(=O)O)cc1[N+](=O)[O-] | 29.5 nM | inactive |  |  |
| CCC(CC)Nc1ccc(C(=O)O)cn1 | 269 nM |  | 20000 nM |  |
| CCNc1ccc(C(=O)O)cn1 | 398 nM | inactive |  |  |
| O=C(O)c1ccc(NC2CC2)nc1 | 324 nM | inactive |  |  |
| O=C(O)c1ccc(NC2CCCC2)c([N+](=O)[O-])c1 | 309 nM | inactive |  |  |

The remaining lines, values ahead:

| EC50 [1] | Activity [2] | EC50 [3] | Activity ([1]; CHO-K1) | SMILES |
| --- | --- | --- | --- | --- |
| 389 nM | inactive |  |  | O=C(O)c1ccc(NC2CCCC2)nc1 |
| 1580 nM | inactive |  |  | O=C(O)c1ccc(NC(=O)c2ccccc2)nc1 |
| 3240 nM | inactive |  |  | COCC(C)Nc1ccc(C(=O)O)cn1 (centres undefined) |
| 120 nM | inactive |  |  | CCCN(CCC)c1ccc(C(=O)O)cc1[N+](=O)[O-] |
| > 10000 nM | inactive |  |  | CCN(CC)c1ccc(C(=O)O)cn1 |
| 151 nM | inactive |  |  | CCC(C)Nc1ccc(C(=O)O)cc1[N+](=O)[O-] (centres undefined) |
| 257 nM | inactive |  |  | CC(C)Nc1ccc(C(=O)O)cc1[N+](=O)[O-] |
| 603 nM | inactive |  |  | CC(C)Nc1ccc(C(=O)O)cn1 |
| > 10000 nM | inactive |  |  | CN(C)c1ccc(C(=O)O)cn1 |
| 70.8 nM | inactive |  |  | C=CCNc1ccc(C(=O)O)cn1 |
| 229 nM | inactive |  |  | CCNc1ccc(C(=O)O)cc1[N+](=O)[O-] |
| 631 nM | inactive |  |  | CCN(CC)c1ccc(C(=O)O)cc1[N+](=O)[O-] |
| 100 nM | inactive |  |  | C=CCNc1ccc(C(=O)O)cc1[N+](=O)[O-] |
| 363 nM | inactive |  |  | CC(C)C(C)Nc1ccc(C(=O)O)cc1[N+](=O)[O-] (centres undefined) |
| 3240 nM | inactive |  |  | O=C(O)c1ccc(Nc2ccccc2)nc1 |
| 57.5 nM | inactive |  |  | CCC(CC)Nc1ccc(C(=O)O)cc1[N+](=O)[O-] |
| 933 nM | inactive |  |  | COCCNc1ccc(C(=O)O)cn1 |
| 72.4 nM | inactive |  |  | O=C(O)c1ccc(NC2CCC2)nc1 |
| 1320 nM | inactive |  |  | CC(C)C(C)Nc1ccc(C(=O)O)cn1 (centres undefined) |
